# Values of other authors in PubChem BioAssay AID1259409 (Chemical Carcinogenesis Research Information System (CCRIS), 2018).
# Test system: rodent chemically induced tumor inhibition, incidence and multiplicity
# Test: CCRIS tumor inhibitor studies
# Details: Route [Inhibitor]: ORAL, Species: RAT, Strain/Sex: F344/MALE; for outcome: Dose [Carcinogen]: 0.1% IN DRINKING WATER FOR 1 WK (STUDY DURATION: 32 WK)
smiles,measurement,setting,value
COc1cc(/C=C/C(=O)O[C@H]2CC[C@]34C[C@]35CC[C@]3(C)[C@@H]([C@H](C)CCC=C(C)C)CC[C@@]3(C)[C@@H]5CC[C@H]4C2(C)C)ccc1O,outcome,"Carcinogen: 2,2'-DIHYDROXY-DI-N-PROPYLNITROSAMINE [621-64-7], Dose [Inhibitor]: 0.04% IN DIET FOR 30 WK BEGINNING 1 WK POST LAST CARCINOGEN DOSE (STUDY DURATION: 32 WK), Target Tissue: Type of Lesion: LUNG: CARCINOMA, Promoter: NONE","0/20 (0%), 0/20 (0%), 0%, not significant"
same,outcome,"Carcinogen: 2,2'-DIHYDROXY-DI-N-PROPYLNITROSAMINE [621-64-7], Dose [Inhibitor]: 0.2% IN DIET FOR 30 WK BEGINNING 1 WK POST LAST CARCINOGEN DOSE (STUDY DURATION: 32 WK), Target Tissue: Type of Lesion: LUNG: CARCINOMA, Promoter: NONE","0/20 (0%), 2/20 (10%), -100%, not significant"
same,outcome,"Carcinogen: 2,2'-DIHYDROXY-DI-N-PROPYLNITROSAMINE [621-64-7], Dose [Inhibitor]: 1% IN DIET FOR 30 WK BEGINNING 1 WK POST LAST CARCINOGEN DOSE (STUDY DURATION: 32 WK), Target Tissue: Type of Lesion: LUNG: CARCINOMA, Promoter: NONE","0/20 (0%), 10/20 (50%), -100%, p<0.001"
same,"tumour outcome (control, treated, inhibition, significance)","Carcinogen: 2,2'-DIHYDROXY-DI-N-PROPYLNITROSAMINE [621-64-7], N-ETHYL-N-HYDROXYETHYLNIATROSAMINE [13147-25-6], 3,2'-DIMETHYL-4-AMINO, Carcinogen: 2,2'-DIHYDROXY-DI-N-PROPYLNITROSAMINE [621-64-7], N-ETHYL-N-HYDROXYETHYLNIATROSAMINE [13147-25-6], 3,2'-DIMETHYL-4-AMINO, Dose [Inhibitor]: 1% IN DIET FOR 32 WK BEGINNING 1 WK POST LAST CARCINOGEN DOSE (STUDY DURATION: 32 WK), Target Tissue: Type of Lesion: LIVER: ADENOMA, Dose [Carcinogen]: 1000 MG/KG BW DHPN IP 2X/3 WK, 1500 MG/KG BW EHEN IP 2X/3 WK, 75 MG/KG BW DMAB SC 3X/3 WK;, Dose [Carcinogen]: 1000 MG/KG BW DHPN IP 2X/3 WK, 1500 MG/KG BW EHEN IP 2X/3 WK, 75 MG/KG BW DMAB SC 3X/3 WK;, Promoter: NONE","9/14 (64%), 5/13 (38%), 41%, p<0.05"
same,"tumour outcome (control, treated, inhibition, significance)","Carcinogen: 2,2'-DIHYDROXY-DI-N-PROPYLNITROSAMINE [621-64-7], N-ETHYL-N-HYDROXYETHYLNIATROSAMINE [13147-25-6], 3,2'-DIMETHYL-4-AMINO, Carcinogen: 2,2'-DIHYDROXY-DI-N-PROPYLNITROSAMINE [621-64-7], N-ETHYL-N-HYDROXYETHYLNIATROSAMINE [13147-25-6], 3,2'-DIMETHYL-4-AMINO, Dose [Inhibitor]: 1% IN DIET FOR 32 WK BEGINNING 1 WK POST LAST CARCINOGEN DOSE (STUDY DURATION: 32 WK), Target Tissue: Type of Lesion: LIVER: CARCINOMA, Dose [Carcinogen]: 1000 MG/KG BW DHPN IP 2X/3 WK, 1500 MG/KG BW EHEN IP 2X/3 WK, 75 MG/KG BW DMAB SC 3X/3 WK;, Dose [Carcinogen]: 1000 MG/KG BW DHPN IP 2X/3 WK, 1500 MG/KG BW EHEN IP 2X/3 WK, 75 MG/KG BW DMAB SC 3X/3 WK;, Promoter: NONE","6/14 (43%), 3/13 (23%), 47%, not significant"
same,"tumour outcome (control, treated, inhibition, significance)","Carcinogen: 2,2'-DIHYDROXY-DI-N-PROPYLNITROSAMINE [621-64-7], N-ETHYL-N-HYDROXYETHYLNIATROSAMINE [13147-25-6], 3,2'-DIMETHYL-4-AMINO, Carcinogen: 2,2'-DIHYDROXY-DI-N-PROPYLNITROSAMINE [621-64-7], N-ETHYL-N-HYDROXYETHYLNIATROSAMINE [13147-25-6], 3,2'-DIMETHYL-4-AMINO, Dose [Inhibitor]: 1% IN DIET FOR 32 WK BEGINNING 1 WK POST LAST CARCINOGEN DOSE (STUDY DURATION: 32 WK), Target Tissue: Type of Lesion: LUNG: ADENOMA, Dose [Carcinogen]: 1000 MG/KG BW DHPN IP 2X/3 WK, 1500 MG/KG BW EHEN IP 2X/3 WK, 75 MG/KG BW DMAB SC 3X/3 WK;, Dose [Carcinogen]: 1000 MG/KG BW DHPN IP 2X/3 WK, 1500 MG/KG BW EHEN IP 2X/3 WK, 75 MG/KG BW DMAB SC 3X/3 WK;, Promoter: NONE","7/14 (50%), 11/13 (85%), -70%, not significant"
same,"tumour outcome (control, treated, inhibition, significance)","Carcinogen: 2,2'-DIHYDROXY-DI-N-PROPYLNITROSAMINE [621-64-7], N-ETHYL-N-HYDROXYETHYLNIATROSAMINE [13147-25-6], 3,2'-DIMETHYL-4-AMINO, Carcinogen: 2,2'-DIHYDROXY-DI-N-PROPYLNITROSAMINE [621-64-7], N-ETHYL-N-HYDROXYETHYLNIATROSAMINE [13147-25-6], 3,2'-DIMETHYL-4-AMINO, Dose [Inhibitor]: 1% IN DIET FOR 32 WK BEGINNING 1 WK POST LAST CARCINOGEN DOSE (STUDY DURATION: 32 WK), Target Tissue: Type of Lesion: LUNG: CARCINOMA, Dose [Carcinogen]: 1000 MG/KG BW DHPN IP 2X/3 WK, 1500 MG/KG BW EHEN IP 2X/3 WK, 75 MG/KG BW DMAB SC 3X/3 WK;, Dose [Carcinogen]: 1000 MG/KG BW DHPN IP 2X/3 WK, 1500 MG/KG BW EHEN IP 2X/3 WK, 75 MG/KG BW DMAB SC 3X/3 WK;, Promoter: NONE","1/14 (8%), 7/13 (54%), -575%, p<0.05"
same,"tumour outcome (control, treated, inhibition, significance)","Carcinogen: 2,2'-DIHYDROXY-DI-N-PROPYLNITROSAMINE, 53609-64-6, N-ETHYL-N-HYDROXYETHYL- NITROSAMINE, 13147-25-6, 3,2'-DIMETHYL-4-, Carcinogen: 2,2'-DIHYDROXY-DI-N-PROPYLNITROSAMINE, 53609-64-6, N-ETHYL-N-HYDROXYETHYL- NITROSAMINE, 13147-25-6, 3,2'-DIMETHYL-4-, Dose [Inhibitor]: 0, 1% IN DIET BEGINNING 1 WK POST LAST CARCINOGEN DOSE AND CONTINUING FOR 32 WK (STUDY DURATION: 36 WK), Target Tissue: Type of Lesion: LARGE INTESTINE: ADENOMA, Dose [Carcinogen]: 1000 MG/KG IP DHPN 2X, 1500 MG/KG GAV EHEN 2X AND 75 MG/KG SC DMAB 3X GIVEN OVER THE INITIAL 3 WK PERIOD AT 3-4 D INTERV, Promoter: NONE USED","7/14 (50%), 5/13 (38%), 24%, not significant"
same,"tumour outcome (control, treated, inhibition, significance)","Carcinogen: 2,2'-DIHYDROXY-DI-N-PROPYLNITROSAMINE, 53609-64-6, N-ETHYL-N-HYDROXYETHYL- NITROSAMINE, 13147-25-6, 3,2'-DIMETHYL-4-, Carcinogen: 2,2'-DIHYDROXY-DI-N-PROPYLNITROSAMINE, 53609-64-6, N-ETHYL-N-HYDROXYETHYL- NITROSAMINE, 13147-25-6, 3,2'-DIMETHYL-4-, Dose [Inhibitor]: 0, 1% IN DIET BEGINNING 1 WK POST LAST CARCINOGEN DOSE AND CONTINUING FOR 32 WK (STUDY DURATION: 36 WK), Target Tissue: Type of Lesion: LARGE INTESTINE: CARCINOMA, Dose [Carcinogen]: 1000 MG/KG/ IP DHPN 2X, 1500 MG/KG GAV EHEN 2X 75 MG/KG SC DMAB 3X GIVEN OVER THE INITIAL 3 WK PERIOD AT 3-4 D INTERVALS, Promoter: NONE USED","3/14 (21%), 6/13 (46%), -119%, not calculated"
